What all share (assay type): biochemical
The target of experiment [1] is T1, VvGT14a (Vitis vinifera, UniProt F6H0R6). The following applies: for Km: monoterpenols at constant UDP-glucose […], UDP-glucose at fixed geraniol 100 µM, Tris-HCl pH 8.5, 30 °C; for kcat: pH 8.5.
The target of experiment [2] is T2, VvGT15a (Vitis vinifera, UniProt F6GUW0). On the procedure:
(§1) The measurements were performed under the following conditions. […] The assay of VvGT15a-c was performed at 30 °C using a Tris-HCl buffer (100 mM, 10 mM 2-mercaptoethanol, pH 7.5) and 10 min (VvGT15c) or 30 min (VvGT15a-b) of incubation for the best substrates. The amount of the purified enzyme and the incubation time were adapted depending on the counting sensibility. The reaction was stopped by adding 1 µL 24% trichloroacetic acid and glucosides were extracted with 100 µL ethyl acetate. Radioactivity was determined by LSC.
(§2) The KM- and vmax-values were calculated from Lineweaver-Burk plots, Hanes-Woolf plots and non-linear fitting of the experimental data.

The target of experiment [3] is T3, VvGT15b (Vitis vinifera, UniProt F6GUW0). On the procedure:
as §1, §2

In experiment [4] the target is T4, VvGT15c (Vitis vinifera, UniProt F6GUW0). As to the method:
as §1, §2

Experiment [5] deals with T5, VvGT16 (Vitis vinifera, UniProt F6HTJ4). Put plainly: Kinetics (KM, kcat) with UDP-[14C]glucose, liquid scintillation counting. The settings on record: monoterpenes at constant UDP-glucose 512.5 µM; UDP-glucose at fixed geraniol 1.25 mM; Tris-HCl pH 8.5, 30 °C.
T5 sequence (F6HTJ4 entry or part of it): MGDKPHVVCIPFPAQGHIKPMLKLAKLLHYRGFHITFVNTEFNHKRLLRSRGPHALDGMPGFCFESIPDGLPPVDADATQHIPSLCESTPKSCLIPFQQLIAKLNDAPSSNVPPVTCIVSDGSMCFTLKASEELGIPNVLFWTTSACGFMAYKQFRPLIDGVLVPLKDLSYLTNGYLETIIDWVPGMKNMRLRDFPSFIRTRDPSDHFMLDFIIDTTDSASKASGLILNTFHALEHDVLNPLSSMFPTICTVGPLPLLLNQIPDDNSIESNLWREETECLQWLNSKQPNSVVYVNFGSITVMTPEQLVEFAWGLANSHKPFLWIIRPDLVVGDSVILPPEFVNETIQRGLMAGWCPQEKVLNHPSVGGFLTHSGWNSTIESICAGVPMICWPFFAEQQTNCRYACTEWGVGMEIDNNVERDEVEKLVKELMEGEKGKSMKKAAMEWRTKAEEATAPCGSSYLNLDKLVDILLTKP
Experiment [6] addresses T1, VvGT14a. The experiment in a line: Substrate screening, radiochemical activity assay with UDP-[14C]glucose. The following applies: for conversion of putative substrate (in words): substrate screening, Figure 3. As to the method: (§3) In the initial screening, each reaction mixture (200 µL in total) contained Tris-HCl buffer (100 mM, pH 8, 10 mM 2-mercaptoethanol), 37 pmol UDP-[^14C]glucose (0.01 µCi, Biotrend, Köln, Germany), substrate (50 µL of a 1 mg/mL stock solution) and purified protein (0.5-0.8 µg/µL). The reaction mixture was incubated at 30 °C for 18.5 hours. The assays were stopped by adding 1 µL 24% trichloroacetic acid and extracted with 500 µL water-saturated 1-butanol. The organic phase was mixed with 2 mL Pro Flow P+ cocktail (Meridian Biotechnologies Ltd., Epsom, UK) and radioactivity was determined by liquid scintillation counting (LSC, Tri-Carb 2800TR, Perkin Elmer, Waltham MA, USA). Additionally, negative controls without substrate were performed.
(§4) After determining the optimal conditions for the best substrate of each gene, the substrate screening was repeated under these conditions.
(§5) The alleles of VvGT14a-c, 15a-c and 16 were isolated from V. vinifera cultivars and cloned in the expression vector pGEX-4T-1. The recombinant proteins were expressed with an N-terminal GST-tag, affinity purified and verified by SDS-PAGE and Western Blot using GST-specific antibody. Enzyme activity studies were performed with UDP-[^14C]glucose and various putative substrates (terpenols, flavonoids and different mono-alcohols) that are known to be glycosidically bound and present in grapes (Gunata et al., 1988).

Experiment [7] addresses T2, VvGT15a. The description is as above. The settings on record: for conversion of putative substrate (in words): substrate screening, Figure 3. On the procedure:
as §3, §4, §5

Experiment [8] addresses T3, VvGT15b. The experiment is described as above. The following applies: for conversion of putative substrate (in words): substrate screening, Figure 3. On the procedure: as §3, §4, §5
In experiment [9] the target is T4, VvGT15c. The description is as above. The following applies: for conversion of putative substrate (in words): substrate screening, Figure 3. On the procedure:
as §3, §4, §5

In experiment [10] the target is T5, VvGT16. Described as above. On the procedure:
as §3, §4, §5

Experiment [11] has as its target T1, VvGT14a. The experiment in a line: Activity based profiling using a physiologic aglycone library (radio-TLC, GC-MS). The settings on record: Figure 7. On the procedure:
For the preparation of aglycone extracts 50 g (fresh weight) grape skins or 4 g (fresh weight) inflorescences of Gewurztraminer Gm 11-18 were ground to a fine powder in liquid nitrogen. The isolation of glycosides was carried out as described above (see metabolite analysis). The methanolic fraction, which was obtained after SPE, was enzymatically hydrolysed. Therefore, the dried sample was dissolved in citric-acid buffer (0.1 M, pH 4), 50 mg AR 2000 (an enzyme preparation with glucosidase activity prepared from Aspergillus niger; DSM Food Specialties Beverage Ingredients, Delft, Netherlands) was added and incubated for 24 h with exclusion of light. The liberated aglycones were extracted by 20 mL methyl-tert-butyl ether and the organic phase was reduced to 1000µL using a gentle stream of nitrogen.
Aliquots of this aglycone extract were incubated with UDP-glucose and various VvGT-enzymes. Optimum conditions at 30 °C for 24 hours were applied. Each solution contained 100 µL purified enzyme, 100-150 µL Tris-HCl buffer (100 mM, pH7.5 or 8.5, 10 mM 2-mercaptoethanol), 37 pmol UDP-[^14C]glucose (0.01 µCi) and 50-100 µL extract (dissolved in methyl-tert-butylether). The buffer was mixed with the extract and the organic solvent was gently vaporized with nitrogen. The missing volume was adjusted with buffer before the enzyme was added. The reaction was stopped by adding 1 µL 24% trichloroacetic acid and extracted with 500 µL ethyl acetate. After termination of the reaction free aglycones, which were not converted by VvGT14 and VvGT15, were measured via SPME-(Solid Phase Microextraction)-GC-MS. These residual, free aglycones were completely removed by extraction with dichloromethane. Enzymatically formed glucosides were extracted by ethyl acetate, which was removed under nitrogen. The residue was dissolved in methanol and analyzed by LC-MS to detect the generated monoterpenol glucosides. Enzymatic hydrolysis of the glucosides was performed using AR 2000 and 2 mL citric-acid-buffer. After hydrolysis, a 100 µL aliquot was used to detect volatile aglycones via SPME-GC-MS. The remaining solution was extracted with methyl-tert-butyl ether and reduced under nitrogen to approximately 200 µL. One µL were measured by GC-MS via liquid injection.
Assays containing UDP-[^14C]glucose and aglycone libraries or substrates were performed as described above and subsequently extracted with 500 µL ethyl acetate. The organic solvent was vaporized and the pellet was re-suspended in 10 µL methanol and was applied on Silica Gel 60 F254 plates (Merck, Darmstadt, Germany). The dried plates were developed in a solvent system chloroform:acetic acid:water (50/45/5, v:v:v). Plates were dried and analyzed by digital autoradiograph (digital autoradiograph, EG&G Berthold, Wildbad, Germany).
An aglycone library of the two tissues was obtained by enzymatic hydrolysis of the glycosides followed by liquid-liquid extraction of the released alcohols and acids. […] The formed glycosides were separated by thin layer chromatography (TLC) and visualized by radiodetection whereas identification could be achieved by LC-MS and NMR analysis and, after hydrolysis, by GC-MS and LC-MS (Figure 6).

The target in experiment [12] is T1, VvGT14a. Put plainly: Enantioselectivity by chiral phase SPME-GC-MS after hydrolysis of the formed glucoside. The settings on record: racemic substrate, prolonged incubation (24 h), aglycone liberated by hydrolysis. As to the method: (§6) To determine the enantioselectivity of VvGT14 and VvGT15 the enantiomeric ratio of glucosidically bound citronellol and linalool was determined by enantioselective GC-MS. Following the incubation, residual citronellol and linalool were completely removed by extraction with dichloromethane. Citronellyl ß-D-glucoside which remained in the aqueous phase was hydrolyzed by HCl (2 mL, 0.1 M, pH 1) for one hour at 100 °C to release citronellol (Skouroumounis and Sefton, 2000). In case of linalyl ß-D-glucoside an enzymatic hydrolysis (AR 2000, citric acid buffer pH 4, 24 h) was applied due to the instability of linalool in acid solutions (Williams et al., 1982). […] After hydrolysis, citronellol and linalool were analyzed by SPME-GC-MS as described above.
(§7) GC-MS analysis was performed with a Varian GC-450 coupled to a Varian MS-240 ion-trap employing a Phenomenex Zebron ZB-WAXplus column (30 m x 0.25 mm x 0.25 µm, Aschaffenburg, Germany). Helium flow rate was 1 mL/min. The analysis was carried out in split mode (liquid injections) or splitless mode (SPME measurements) with 220 °C injector temperature. EI (electron impact ionization)-MS spectra were recorded from m/z 40 to 300 (ionization energy 70 eV; trap temperature 170 °C). The oven temperature program was 60 °C (3 min), 10 °C/min up to 250 °C (5 min). In case of SPME measurements, liberated aglycones were isolated for 10 min at 60°C using a fiber coated with a 85 µm film of polyacrylate (SUPELCO, Bellefonte, USA). After extraction the SPME fiber was desorbed for 10 min at 250°C in the injection port of the GC-MS system and the column oven program was carried out as described above. Enantioselective GC-MS analysis was performed with a Varian GC-450 coupled to a Varian MS-240 ion-trap. The column was a DiAcß (heptakis-(2,3-di-O-acetyl-6-O-tert.-butyldimethylsilyl)-ß-cyclodextrin), 26 m x 0.32 mm i.d. with a 0.1 µm film. […] GC-MS measurements were recorded in full scan mode. Selected ion monitoring (SIM) mode was used for quantification.

Experiment [13] concerns the target T2, VvGT15a. Described as above. The settings on record: racemic substrate, prolonged incubation (24 h), aglycone liberated by acid hydrolysis. As to the method: as §6, §7
Where [14] appears, read: substrates at fixed UDP-glucose 833 µM, UDP-glucose at constant geraniol 1.25 mM, Tris-HCl pH 7.5, 30 °C.
The mark [15] stands for this setting: relative to conversion of geraniol (100 %), extractable radioactivity.
The mark [16] stands for this setting: citronellol enantiomers, Figure 12, highest level of extractable radioactivity = 100 %.

“And” between values parts separate entries of the source, which are not always exact repeats. Identical values can stand only once.

As usually defined, the Km is the concentration of substrate that gives half-maximal velocity. By kcat is commonly meant the number of substrate molecules converted per active site and unit of time at saturation.

T1 sequence (F6H0R6 entry or part of it): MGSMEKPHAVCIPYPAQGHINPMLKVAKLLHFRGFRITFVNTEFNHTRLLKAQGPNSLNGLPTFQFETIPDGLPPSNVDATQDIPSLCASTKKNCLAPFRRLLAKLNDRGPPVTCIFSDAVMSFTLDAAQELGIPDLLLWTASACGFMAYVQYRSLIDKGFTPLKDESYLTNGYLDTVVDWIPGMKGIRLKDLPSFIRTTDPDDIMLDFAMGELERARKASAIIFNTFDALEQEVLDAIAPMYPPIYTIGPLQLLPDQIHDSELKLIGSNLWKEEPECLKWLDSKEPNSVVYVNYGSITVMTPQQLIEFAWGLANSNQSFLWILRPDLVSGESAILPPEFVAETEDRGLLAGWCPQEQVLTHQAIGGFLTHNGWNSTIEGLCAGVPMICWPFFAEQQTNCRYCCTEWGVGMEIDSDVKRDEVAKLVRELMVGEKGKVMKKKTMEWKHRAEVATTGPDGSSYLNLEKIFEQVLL
T2 sequence (F6GUW0 entry or part of it): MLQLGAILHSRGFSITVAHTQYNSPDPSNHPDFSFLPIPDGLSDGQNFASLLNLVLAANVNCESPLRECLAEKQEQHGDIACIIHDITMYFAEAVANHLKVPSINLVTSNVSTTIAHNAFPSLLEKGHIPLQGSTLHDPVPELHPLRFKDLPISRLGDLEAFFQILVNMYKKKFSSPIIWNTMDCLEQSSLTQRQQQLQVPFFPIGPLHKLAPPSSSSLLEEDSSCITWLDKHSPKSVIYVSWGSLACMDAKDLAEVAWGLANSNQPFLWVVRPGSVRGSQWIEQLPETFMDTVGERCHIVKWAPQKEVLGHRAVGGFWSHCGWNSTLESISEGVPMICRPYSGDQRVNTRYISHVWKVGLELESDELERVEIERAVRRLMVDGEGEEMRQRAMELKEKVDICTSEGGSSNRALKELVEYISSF
T4 sequence (F6GUW0 entry or part of it): as above
T3 sequence (F6GUW0 entry or part of it): as above

Turning to `CC(C)=CCC/C(C)=C/CO` [Geraniol, (E)-3,7-dimethyl-2,6-octadien-1-ol], the Km on VvGT14a [1] worked out at 9 ± 1.2 µM; on VvGT15a [2] (setting [14]) it was 63 µM; on VvGT15b [3] (setting [14]), 81 µM; at VvGT15c [4] (setting [14]), 43 µM; on VvGT16 [5], 355 ± 14 µM. In addition, the kcat was 0.02 s⁻¹ on VvGT14a [1]; 0.12 s⁻¹ at VvGT15a [2] (pH 7.5); 0.1 s⁻¹ and 0.10 s⁻¹ at VvGT15b [3] (pH 7.5); 0.17 s⁻¹ on VvGT15c [4] (pH 7.5); 0.015 s⁻¹ at VvGT16 [5]. The “Michaelis constant, fold greater than the KM values for nerol and S-citronellol” value on VvGT15a [2], at VvGT15b [3] and at VvGT15c [4] was “about 2 fold” in each case. The relative specific activity on VvGT14a [6] (setting [15]) is 100%; on VvGT15a [7] (setting [15]) it was 100%; at VvGT15b [8] (setting [15]) it was 100%; at VvGT15c [9] (setting [15]), 100%; at VvGT16 [10] (relative to conversion of benzyl alcohol (100 %), extractable radioactivity), > 80%. Further, the “conversion of putative substrate (in words)” value (shortened to “conversion”) at VvGT14a [6] is “preferred”; at VvGT15a [7] it was “glucosylated primarily”; at VvGT15b [8], “glucosylated primarily”; at VvGT15c [9], “glucosylated primarily”. For the same compound, on VvGT14a [11], the “aglycone liberated by enzymatic hydrolysis of the glucosides formed from the grape skin aglycone library (in words)” value (from here on “aglycone liberated”) is given as “substantial amount”.

Take `CC(C)=CCCC(C)CCO` (racemic) [citronellol (rac), (R,S)-3,7-dimethyl-6-octen-1-ol]: the Km at VvGT14a [1] worked out at 9 ± 0.3 µM. Further, the kcat at VvGT14a [1] was 0.02 s⁻¹. Moreover, the relative specific activity at VvGT14a [6] (setting [16]) and on VvGT15c [9] (setting [16]) was 100% in each case. Also, the “conversion” value is given as “preferred” on VvGT14a [6]; “glucosylated primarily” on VvGT15a [7]; “glucosylated primarily” on VvGT15b [8]; “glucosylated primarily” on VvGT15c [9]; “transformed” at VvGT16 [10] (substrate screening, Figure 3). The “enantiomeric preference (in words)” value at VvGT14a [12] and on VvGT15a [13] was “no enantio-discrimination” throughout. In addition, the “aglycone liberated” value at VvGT14a [11] is on record as “remarkable quantities”.

Regarding `C=CC(C)(O)CCC=C(C)C` (racemic) [linalool (rac), (R,S)-3,7-dimethyl-1,6-octadien-3-ol], at VvGT14a [1], the Km was 47 ± 0.1 µM and the kcat stood at 0.0003 s⁻¹. Further, at VvGT14a [6], the “conversion” value was “catalytic activity”. The “enantiomeric preference (in words)” value on VvGT14a [12] is reported as “slight enrichment of the R-enantiomer”. The “aglycone liberated” value at VvGT14a [11] is listed as “remarkable quantities”.

Source of the values: patent publication EP2960339A1, “Method and kit for the identification of glycosyl transferase substrates” (Technische Universität München, priority 2014, dated 2015).
